The text below walks through data of PMC6433648 (British Journal of Pharmacology, 2019).

One may read the IC50 as the concentration needed to halve the response being measured. Usually Kd stands for the equilibrium constant for the complex coming apart.

Assay [1] has as its target T1, human Nluc‐A1AR (Homo sapiens, UniProt P30542).
T1 sequence (P30542 2-326 limits assumed): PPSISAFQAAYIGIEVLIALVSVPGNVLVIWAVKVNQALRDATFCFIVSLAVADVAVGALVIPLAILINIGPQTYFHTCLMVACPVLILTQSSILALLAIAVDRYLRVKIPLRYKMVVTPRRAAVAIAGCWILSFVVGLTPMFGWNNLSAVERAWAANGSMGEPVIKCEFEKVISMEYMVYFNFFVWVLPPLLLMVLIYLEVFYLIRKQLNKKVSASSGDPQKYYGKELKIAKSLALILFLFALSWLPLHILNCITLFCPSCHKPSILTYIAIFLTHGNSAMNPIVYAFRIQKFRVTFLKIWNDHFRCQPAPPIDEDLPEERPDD
Briefly: NanoBRET competition binding: inhibition of specific binding of CA200645. The arrangement: expressed in transfected cells. The following applies: for IC50: Nluc‐human A1AR, 25 nM CA200645, HEK293T cells; for concentrations producing a small direct inhibition of CA200645 binding: more evident at the human A1‐receptor; for Ki: read-out: pK i ± SEM (converted). The text has this:
The IC50 values from competition‐binding curves were used to calculate the K i of the unlabelled ligands using the Cheng–Prusoff equation: Ki=IC50/1+L/KD, where [L] is the concentration of fluorescent ligand in nM, and K D is the dissociation constant of the fluorescent ligand in nM. The K D values used were obtained from the saturation‐binding experiments.
For orientation: BRET reads energy transfer from a luciferase to a nearby fluorophore.

The target of assay [2] is T2, rat Nluc‐A1AR (Rattus norvegicus, UniProt P25099).
T2 sequence (P25099 2-326 limits assumed): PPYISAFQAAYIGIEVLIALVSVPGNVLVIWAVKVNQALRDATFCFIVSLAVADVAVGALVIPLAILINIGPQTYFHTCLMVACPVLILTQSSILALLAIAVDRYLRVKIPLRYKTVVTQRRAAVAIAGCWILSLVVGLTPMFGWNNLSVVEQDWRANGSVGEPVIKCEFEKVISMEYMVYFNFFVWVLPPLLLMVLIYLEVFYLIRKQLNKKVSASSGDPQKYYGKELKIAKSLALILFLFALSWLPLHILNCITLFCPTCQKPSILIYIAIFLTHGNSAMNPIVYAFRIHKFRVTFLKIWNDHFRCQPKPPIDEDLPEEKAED
The description is as above.
Procedure: (§2) The fluorescent antagonist saturation, competition‐binding, allosteric modulator binding cooperativity, and the fluorescent agonist saturations in the presence/absence of allosteric modulator assays were performed on the stably transfected HEK293T cells expressing human or rat Nluc‐A1R. The cells were seeded 24 hr before experimentation in white walled, poly‐D‐lysine coated 96‐well microplates (Thermo Scientific, Loughborough, UK) at a density of 25,000 cells per well.
(§3) For each experiment, ligands were added simultaneously, and the 96‐well plate was incubated for 1 hr at 37°C (no CO2). Following this, the Nluc substrate furimazine (Promega) was added to give a final concentration of 10 μM and then incubated for 5 min at 37°C. For all experiments, the luminescence and resulting BRET were measured using the PHERAstar FS plate reader (BMG Labtech) using filtered light emissions at 460 nm (80 nm bandpass) and >610 nm (longpass) at room temperature. The raw BRET ratio was calculated by dividing the >610 nm emission by the 460 nm emission.

The target in assay [3] is T1, human Nluc‐A1AR. Briefly: Fluorescent agonist saturation binding in presence/absence of allosteric modulator (NanoBRET). The arrangement: expressed in transfected cells; key to B max: Bmax expressed as BRET ratio from saturation fit. The settings on record: Human Nluc A1R. The text has this: (§1) Pooled fluorescent agonist saturation assays obtained in the presence and absence of a fixed concentration of allosteric modulator were simultaneously fitted to the following equation: BRET ratio=Bmax×B/B+KD+M×B+C.

Assay [4] concerns the target T2, rat Nluc‐A1AR. The assay is described as above. The arrangement: expressed in transfected cells; key to B max: Bmax expressed as BRET ratio from saturation fit. The settings on record: Rat Nluc A1R.
From the text: as §1

In assay [5] the target is T1, human Nluc‐A1AR. The assay can be described thus: cell-based.
Procedure: as §2, §3
Assay [6] has as its target T2, rat Nluc‐A1AR. The assay can be described thus: cell-based. The following applies: agonist pIC50, Rat, 25 nM CA200645.
Procedure: as §2, §3
Another assay relates to human A1‐receptors. Also noted: method as in May et al., 2010. The following applies: PD 81,723 10 μM, CHO cells; ref May et al., 2010; cited from earlier work.
Where [7] appears, read: VCP171 0 (control), maximal specific binding (BRET ratio fit).

`Nc1scc(-c2cccc(C(F)(F)F)c2)c1C(=O)c1ccccc1` [VCP171, (2‐amino‐4‐(3‐(trifluoromethyl)phenyl)thiophen‐3‐yl)(phenyl)methanone]: on human Nluc‐A1AR [1], the 50% inhibitory concentration (IC50) is 40700 nM, the “concentrations producing a small direct inhibition of CA200645 binding” value lay within 10 to 100 µM and the Ki is 23400 nM. At rat Nluc‐A1AR [2], this molecule showed an IC50 of 129000 nM and a Ki of 70800 nM.
`O=C(CCCCCNC(=O)COc1ccc(/C=C/C2=[N+]3C(=Cc4ccc(-c5cccs5)n4[B-]3(F)F)C=C2)cc1)NCCCCNc1ncnc2c1ncn2[C@@H]1O[C@H](CO)[C@@H](O)[C@H]1O` [ABA‐X‐BY630]: the B max on human Nluc‐A1AR [3] (PD 81,723 0 (control)) came to 0.019 ± 0.002; at human Nluc‐A1AR [3] (setting [7]), 0.019 ± 0.002; at human Nluc‐A1AR [3] (with 10 μM PD 81,723), 0.035 ± 0.005; at human Nluc‐A1AR [3] (with 10 μM VCP171) it was 0.033 ± 0.004; on human Nluc‐A1AR [3] (with 30 μM PD 81,723) it was 0.035 ± 0.008; on human Nluc‐A1AR [3] (with 30 μM VCP171) it was 0.036 ± 0.003. For the same molecule, the B max at rat Nluc‐A1AR [4] (PD 81,723 0 (control)) is listed as 0.031 ± 0.002; on rat Nluc‐A1AR [4] (setting [7]), 0.031 ± 0.014; on rat Nluc‐A1AR [4] (with 10 μM PD 81,723), 0.040 ± 0.005; on rat Nluc‐A1AR [4] (with 10 μM VCP171) it was 0.048 ± 0.009; on rat Nluc‐A1AR [4] (with 30 μM PD 81,723), 0.054 ± 0.007; on rat Nluc‐A1AR [4] (with 30 μM VCP171), 0.072 ± 0.021. For the same molecule, the Kd at human Nluc‐A1AR [3] (VCP171 0 (control)) is 589 nM; on rat Nluc‐A1AR [4] (PD 81,723 0 (control)) it was 955 nM; at rat Nluc‐A1AR [4] (VCP171 0 (control)), 891 nM.
On rat Nluc‐A1AR [2], `Nc1sc(-c2ccc(C(=O)NCCCCCCNc3ncnc4c3ncn4[C@@H]3O[C@H](CO)[C@@H](O)[C@H]3O)cc2)c(-c2cccc(C(F)(F)F)c2)c1C(=O)c1ccccc1` [VCP746, 4‐(5‐amino‐4‐benzoyl‐3‐(3‐(trifluoromethyl)phenyl)thiophen‐2‐yl)‐N‐(6‐(9‐((2R,3R,4S,5R)‐3,4‐dihydroxy‐5‐(hydroxylmethyl)tetrahydro‐furan‐2‐yl)‐9H‐purin‐6‐ylamino)hexyl)benzamide] had an IC50 of 17400 nM and a Ki of 9550 nM.
With `CCNC(=O)[C@H]1O[C@@H](n2cnc3c(NCCCCNC(=O)CCCCCNC(=O)COc4ccc(/C=C/C5=[N+]6C(=Cc7ccc(-c8cccs8)n7[B-]6(F)F)C=C5)cc4)ncnc32)[C@H](O)[C@@H]1O` [ABEA‐X‐BY630], the B max on human Nluc‐A1AR [3] (PD 81,723 0 (control)) came to 0.007 ± 0.001; on human Nluc‐A1AR [3] (setting [7]), 0.006 ± 0.001; at human Nluc‐A1AR [3] (with 10 μM PD 81,723), 0.012 ± 0.003; on human Nluc‐A1AR [3] (with 10 μM VCP171), 0.013 ± 0.002; at human Nluc‐A1AR [3] (with 30 μM PD 81,723) it was 0.016 ± 0.004; at human Nluc‐A1AR [3] (with 30 μM VCP171), 0.016 ± 0.002. Also, the B max was 0.015 ± 0.002 on rat Nluc‐A1AR [4] (PD 81,723 0 (control)); 0.010 ± 0.001 at rat Nluc‐A1AR [4] (setting [7]); 0.018 ± 0.002 on rat Nluc‐A1AR [4] (with 10 μM PD 81,723); 0.021 ± 0.002 on rat Nluc‐A1AR [4] (with 10 μM VCP171); 0.032 ± 0.01 on rat Nluc‐A1AR [4] (with 30 μM PD 81,723); 0.026 ± 0.003 on rat Nluc‐A1AR [4] (with 30 μM VCP171). Besides, the Kd at human Nluc‐A1AR [3] (PD 81,723 0 (control)) is 977 nM; at human Nluc‐A1AR [3] (VCP171 0 (control)), 1020 nM; at rat Nluc‐A1AR [4] (PD 81,723 0 (control)), 1820 nM; on rat Nluc‐A1AR [4] (VCP171 0 (control)) it was 891 nM.
Consider `N#Cc1c(N)nc(SCc2csc(-c3ccc(Cl)cc3)n2)c(C#N)c1-c1ccc(OCCO)cc1` [Capadenoson, 2‐amino‐6‐[[2‐(4‐chlorophenyl)‐1,3‐thiazol‐4‐yl]methylsulfanyl]‐4‐[4‐(2‐hydroxyethoxy)phenyl]pyridine‐3,5‐dicarbonitrile], for which the half-inhibitory concentration (IC50) against human Nluc‐A1AR [5] is 282 nM; at human Nluc‐A1AR [1], 245 nM; on rat Nluc‐A1AR [6] (PD 81,723 0 (control)) it was 275 nM; at rat Nluc‐A1AR [6] (VCP171 0 (control)), 251 nM; on rat Nluc‐A1AR [2], 186 nM. Further, the figures for the Ki on human Nluc‐A1AR [1] and on rat Nluc‐A1AR [2] were 141 nM and 102 nM, respectively.
On rat Nluc‐A1AR [2], `O=C(Cc1ccccc1)Nc1nc2ccc(Cl)cc2c2nc(-c3ccco3)nn12` [MRS1220, N‐[9‐chloro‐2‐(furan‐2‐yl)‐[1,2,4]triazolo[1,5‐c]quinazolin‐5‐yl]‐2‐phenylacetamide] gave an IC50 of 1950 nM and a Ki of 1070 nM.
`Cc1sc(N)c(C(=O)c2cccc(C(F)(F)F)c2)c1C` [PD 81,723, (2‐amino‐4,5‐dimethylthiophen‐3‐yl)(3‐(trifluoromethyl)phenyl)methanone]: the “effect on dissociation of BY630‐ABA” value in the assay with human A1‐receptors is recorded as “slow the dissociation”. For the same molecule, the “concentrations producing a small direct inhibition of CA200645 binding” value on human Nluc‐A1AR [1] was greater than 100 µM. At rat Nluc‐A1AR [2], this molecule came in with an IC50 greater than 100000 nM.
